# Measured values as given in ChEMBL document CHEMBL3886715, “Tetrahydroisoquinoline derivatives, pharmaceutical compositions and uses thereof” (2016).
# Target: Acetyl-CoA carboxylase 2 (Homo sapiens, UniProt O00763)
# Assay: Spectrophotometric 384 Well Assay: Assay reactions are then carried out in 384-well plates, with hACC2 in an appropriate dilution and at final assay concentrations (f.c.) of 100 mM Tris (pH 7.5), 10 mM trisodium citrate, 25 mM KHCO3, 10 mM MgCl2, 0.5 mg/ml BSA, 3.75 mM reduced L-glutathione, 15 U/ml lactate dehydrogenase, 0.5 mM phosphoenolpyruvate, 15 U/ml pyruvate kinase, compounds at different concentrations at final DMSO concentrations of 1%.The enzymatic reaction is then started by addition of a mixture of NADH, acetyl Coenzyme A (both […].) and ATP (500 uM f.c.). The decrease of the optical density (slope S) is then determined at 25° C. at a wavelength of 340 nm over 15 minutes in a spectrophotometric reader.Each assay microtiter plate contains wells with vehicle instead of compound as controls for the non-inhibited enzyme (100% CTL; HIGH) and wells without acetyl-CoA as controls for non-specific NADH degradation (0% CTL; LOW).
# Sequence of Acetyl-CoA carboxylase 2 (O00763 whole entry): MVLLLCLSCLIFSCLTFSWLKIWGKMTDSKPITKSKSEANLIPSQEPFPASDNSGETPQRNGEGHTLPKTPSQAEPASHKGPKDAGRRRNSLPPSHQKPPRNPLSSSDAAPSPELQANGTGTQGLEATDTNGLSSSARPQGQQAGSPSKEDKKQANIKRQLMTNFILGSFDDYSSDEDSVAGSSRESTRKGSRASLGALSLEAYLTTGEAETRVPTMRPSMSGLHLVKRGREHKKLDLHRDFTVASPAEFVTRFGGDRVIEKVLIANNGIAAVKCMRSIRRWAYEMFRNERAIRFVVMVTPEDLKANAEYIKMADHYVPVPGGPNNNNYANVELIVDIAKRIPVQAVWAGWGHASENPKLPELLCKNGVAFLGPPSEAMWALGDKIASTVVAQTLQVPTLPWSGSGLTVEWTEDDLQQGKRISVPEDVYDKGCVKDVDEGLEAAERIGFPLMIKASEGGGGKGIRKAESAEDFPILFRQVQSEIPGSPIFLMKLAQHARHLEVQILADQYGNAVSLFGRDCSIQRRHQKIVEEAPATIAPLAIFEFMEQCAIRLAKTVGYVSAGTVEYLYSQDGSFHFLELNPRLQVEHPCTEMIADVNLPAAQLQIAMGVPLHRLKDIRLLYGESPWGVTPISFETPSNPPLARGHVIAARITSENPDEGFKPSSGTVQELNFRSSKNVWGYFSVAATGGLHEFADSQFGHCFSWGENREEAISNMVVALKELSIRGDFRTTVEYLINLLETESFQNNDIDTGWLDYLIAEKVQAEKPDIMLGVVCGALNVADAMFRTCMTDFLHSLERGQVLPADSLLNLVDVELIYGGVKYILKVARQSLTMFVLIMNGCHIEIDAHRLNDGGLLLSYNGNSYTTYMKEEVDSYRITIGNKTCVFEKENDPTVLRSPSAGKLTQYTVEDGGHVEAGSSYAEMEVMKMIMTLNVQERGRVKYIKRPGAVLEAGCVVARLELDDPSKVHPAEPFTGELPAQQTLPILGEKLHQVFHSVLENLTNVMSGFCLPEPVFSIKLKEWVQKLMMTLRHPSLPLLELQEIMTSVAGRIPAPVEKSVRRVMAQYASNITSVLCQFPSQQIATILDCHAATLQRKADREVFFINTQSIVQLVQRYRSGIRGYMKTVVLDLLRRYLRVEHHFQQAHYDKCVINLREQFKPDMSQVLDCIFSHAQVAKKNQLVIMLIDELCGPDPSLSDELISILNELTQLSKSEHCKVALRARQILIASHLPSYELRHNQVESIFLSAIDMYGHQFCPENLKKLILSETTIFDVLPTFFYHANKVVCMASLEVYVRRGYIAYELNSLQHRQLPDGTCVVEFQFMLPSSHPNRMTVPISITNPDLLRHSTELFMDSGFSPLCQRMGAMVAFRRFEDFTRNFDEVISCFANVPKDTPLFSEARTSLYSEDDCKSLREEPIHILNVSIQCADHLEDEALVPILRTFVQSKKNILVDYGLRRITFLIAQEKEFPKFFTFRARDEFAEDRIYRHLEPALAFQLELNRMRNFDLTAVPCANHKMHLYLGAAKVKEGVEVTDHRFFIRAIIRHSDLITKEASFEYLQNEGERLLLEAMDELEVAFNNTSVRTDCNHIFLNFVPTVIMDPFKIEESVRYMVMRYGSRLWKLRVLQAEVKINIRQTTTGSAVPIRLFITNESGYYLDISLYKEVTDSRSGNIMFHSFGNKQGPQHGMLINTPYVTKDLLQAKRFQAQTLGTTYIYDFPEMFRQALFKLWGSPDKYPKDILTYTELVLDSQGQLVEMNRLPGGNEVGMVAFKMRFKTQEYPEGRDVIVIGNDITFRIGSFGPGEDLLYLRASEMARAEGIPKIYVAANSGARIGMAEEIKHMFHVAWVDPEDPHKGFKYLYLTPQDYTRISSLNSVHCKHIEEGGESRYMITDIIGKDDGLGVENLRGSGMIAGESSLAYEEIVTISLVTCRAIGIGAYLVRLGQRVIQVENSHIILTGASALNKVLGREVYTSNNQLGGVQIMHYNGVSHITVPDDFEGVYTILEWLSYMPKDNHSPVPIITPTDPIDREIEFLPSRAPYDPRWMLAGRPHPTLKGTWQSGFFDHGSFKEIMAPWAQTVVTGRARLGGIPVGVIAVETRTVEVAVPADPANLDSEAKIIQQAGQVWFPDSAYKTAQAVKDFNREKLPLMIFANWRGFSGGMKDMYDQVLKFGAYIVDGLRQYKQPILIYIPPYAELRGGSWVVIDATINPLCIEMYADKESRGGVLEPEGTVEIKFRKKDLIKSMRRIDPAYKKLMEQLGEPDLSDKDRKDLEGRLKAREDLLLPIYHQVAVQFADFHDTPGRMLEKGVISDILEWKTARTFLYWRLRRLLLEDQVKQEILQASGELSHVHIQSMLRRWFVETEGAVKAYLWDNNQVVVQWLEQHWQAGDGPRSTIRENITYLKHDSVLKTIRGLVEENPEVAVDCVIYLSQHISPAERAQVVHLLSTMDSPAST
compound,measurement,value
CC(=O)N[C@@H](C)c1ccc(CN2CCc3cc(OCC4CC4)ccc3C2C(=O)O)cc1 (some centres not stated),IC50,806 nM
C[C@H](NC(=O)N(C)C)c1ccc(CN2Cc3ccc(OCC4CC4)cc3C(F)C2)cc1 (some centres not stated),IC50,22 nM
